Experimental data from US20250171430A1, “PYRAZOLYL COMPOUNDS AS KV7 CHANNEL ACTIVATORS” (Biohaven Therapeutics Ltd., priority 2022, published 2025).

Target: T1, Kv7.2/7.3 (Homo sapiens, UniProt O43525+O43526)
T1 construct: Kv7.2 tetracycline-induced, Kv7.3 constitutive
Assay: Kv7.2/7.3 Activation Assay (Thallium Flux Assay)
Format: cell-based
Conditions: hKV7.2/7.3 cell line; test compound at single concentration of 10 μM; fluorescence at 90 sec normalized to positive control (retigabine, 30 μM)
How it was run: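 Single-point activity at 10 μM (0.1% DMSO, HEPES-buffered saline, pH 7.4) was scored from fluorescence at 90 s relative to 30 μM retigabine. Categories were none <0.15, moderate 0.15-0.7 and high >0.7. Thallium influx after stimulus addition was followed with FluxOR II Green dye in hKv7.2/7.3 cells, Kv7.2 expressed under overnight tetracycline (10 ng/mL) induction.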

| Structure (SMILES) | Kv7.2/7.3 Activity |
| --- | --- |
| Cn1nc(NC(=O)C[C@@H]2CC(F)(F)C2(F)F)c(C2CCC2)c1Cc1ccccc1 [Compound 15, (R)-N-(5-benzyl-4-cyclobutyl-1-methyl-1H-pyrazol-3-yl)-2-(2,2,3,3-tetrafluorocyclobutyl)acetamide] | ++ (“++” High Activity ≥ 0.7) |
| Cn1nc(NC(=O)C2(C(C)(F)F)CC2)c(C2CCC2)c1-c1ccc(F)cc1 [Compound 131, N-(4-cyclobutyl-5-(4-fluorophenyl)-1-methyl-1H-pyrazol-3-yl)-1-(1,1-difluoroethyl)cyclopropane-1-carboxamide] | ++ (“++” High Activity ≥ 0.7) |
| Cc1c(C2CCC2)c(NC(=O)CC(C)(C)C(F)(F)F)nn1Cc1ccc(F)cc1 [Compound 94, N-(4-cyclobutyl-1-(4-fluorobenzyl)-5-methyl-1H-pyrazol-3-yl)-4,4,4-trifluoro-3,3-dimethylbutanamide] | − (“−” No Activity < 0.15) |
| Cn1nc(NC(=O)CC2(C(F)F)CC2)c(C2CCC2)c1-c1cc(F)c(F)c(F)c1 [Compound 265, N-(4-cyclobutyl-1-methyl-5-(3,4,5-trifluorophenyl)-1H-pyrazol-3-yl)-2-(1-(difluoromethyl)cyclopropyl)acetamide] | ++ (“++” High Activity ≥ 0.7) |
| Cn1nc(NC(=O)C(C)(C)C(F)F)c(C2CCC2)c1-c1ccccc1F [Compound 172, N-(4-cyclobutyl-5-(2-fluorophenyl)-1-methyl-1H-pyrazol-3-yl)-3,3-difluoro-2,2-dimethylpropanamide] | + (“+” Moderate Activity 0.15-0.7) |
| C[C@@H](C(=O)Nc1nn(C)c(-c2ccc(OC(F)(F)F)cc2)c1C1CCC1)C1CC(F)(F)C1 [Compound 178, (R)-N-(4-cyclobutyl-1-methyl-5-(4-(trifluoromethoxy)phenyl)-1H-pyrazol-3-yl)-2-(3,3-difluorocyclobutyl)propanamide] | − (“−” No Activity < 0.15) |
| CO[C@@H](CC(=O)Nc1nn(C)c(-c2ccc(F)c(F)c2)c1C1CCC1)C(F)(F)F [Compound 215, (S)-N-(4-cyclobutyl-5-(3,4-difluorophenyl)-1-methyl-1H-pyrazol-3-yl)-4,4,4-trifluoro-3-methoxybutanamide] | ++ (“++” High Activity ≥ 0.7) |
| Cn1nc(NC(=O)N[C@H]2CCC(F)(F)C2)c(C2CCC2)c1-c1ccc(F)cc1 [Compound 237, (S)-1-(4-cyclobutyl-5-(4-fluorophenyl)-1-methyl-1H-pyrazol-3-yl)-3-(3,3-difluorocyclopentyl)urea] | + (“+” Moderate Activity 0.15-0.7) |
| Cn1nc(NC(=O)OCC2CC(F)(F)C2)c(C2CCC2)c1-c1ccc(F)cc1 [Compound 243, (3,3-difluorocyclobutyl)methyl (4-cyclobutyl-5-(4-fluorophenyl)-1-methyl-1H-pyrazol-3-yl)carbamate] | ++ (“++” High Activity ≥ 0.7) |
| Cn1nc(NC(=O)CC(C)(C)O)c(C2CCC2)c1-c1ccc(OC(F)(F)F)cc1 [Compound 55, N-(4-cyclobutyl-1-methyl-5-(4-(trifluoromethoxy)phenyl)-1H-pyrazol-3-yl)-3-hydroxy-3-methylbutanamide] | + (“+” Moderate Activity 0.15-0.7) |
| Cn1nc(NC(=O)[C@H]2CC2(F)F)c(C2CCC2)c1-c1ccc(F)cc1 [Compound 133, (R)-N-(4-cyclobutyl-5-(4-fluorophenyl)-1-methyl-1H-pyrazol-3-yl)-2,2-difluorocyclopropane-1-carboxamide] | ++ (“++” High Activity ≥ 0.7) |
| Cn1nc(NC(=O)NC2CC(F)(F)C2)c(C2CCC2)c1-c1ccc(F)c(F)c1 [Compound 213, 1-(4-cyclobutyl-5-(3,4-difluorophenyl)-1-methyl-1H-pyrazol-3-yl)-3-(3,3-difluorocyclobutyl)urea] | ++ (“++” High Activity ≥ 0.7) |
| CCn1nc(NC(=O)c2ccc(F)c(F)c2)c(C2CC2)c1C [Compound 11, N-(4-cyclopropyl-1-ethyl-5-methyl-1H-pyrazol-3-yl)-3,4-difluorobenzamide] | − (“−” No Activity < 0.15) |
| Cn1nc(NC(=O)NCC(F)(F)F)c(C2CCC2)c1C1CC(F)(F)C1 [Compound 293, 1-(4-cyclobutyl-5-(3,3-difluorocyclobutyl)-1-methyl-1H-pyrazol-3-yl)-3-(2,2,2-trifluoroethyl)urea] | ++ (“++” High Activity ≥ 0.7) |
| Cn1nc(NC(=O)CC2(O)CCCC2)c(C2CCC2)c1-c1ccc(OC(F)(F)F)cc1 [Compound 71, N-(4-cyclobutyl-1-methyl-5-(4-(trifluoromethoxy)phenyl)-1H-pyrazol-3-yl)-2-(1-hydroxycyclopentyl)acetamide] | ++ (“++” High Activity ≥ 0.7) |
| Cn1nc(NC(=O)C2CC3(C2)CC(F)(F)C3)c(C2CCC2)c1-c1ccc(F)cc1 [Compound 204, N-(4-cyclobutyl-5-(4-fluorophenyl)-1-methyl-1H-pyrazol-3-yl)-6,6-difluorospiro[3.3]heptane-2-carboxamide] | ++ (“++” High Activity ≥ 0.7) |
| Cn1nc(NC(=O)[C@H]2CC2(F)F)c(C2CCC2)c1-c1cccc(F)c1 [Compound 168, (R)-N-(4-cyclobutyl-5-(3-fluorophenyl)-1-methyl-1H-pyrazol-3-yl)-2,2-difluorocyclopropane-1-carboxamide] | ++ (“++” High Activity ≥ 0.7) |
| Cn1nc(NC(=O)CC2CC(F)(F)C2)c(C2CCC2)c1-c1ccc(Cl)cc1 [Compound 222, N-(5-(4-chlorophenyl)-4-cyclobutyl-1-methyl-1H-pyrazol-3-yl)-2-(3,3-difluorocyclobutyl)acetamide] | ++ (“++” High Activity ≥ 0.7) |
| Cn1nc(NC(=O)CC(C)(O)c2ccc(F)cc2F)c(C2CCC2)c1-c1ccc(OC(F)(F)F)cc1 (stereo not shown) [Compound 176, N-(4-cyclobutyl-1-methyl-5-(4-(trifluoromethoxy)phenyl)-1H-pyrazol-3-yl)-3-(2,4-difluorophenyl)-3-hydroxybutanamide] | ++ (“++” High Activity ≥ 0.7) |

Next, values leading:

| Kv7.2/7.3 Activity | Structure (SMILES) |
| --- | --- |
| ++ (“++” High Activity ≥ 0.7) | C[C@H](C(=O)Nc1nn(C)c(-c2ccc(F)cc2)c1C1CCC1)C1CC(F)(F)C1 [Compound 129, (S)-N-(4-cyclobutyl-5-(4-fluorophenyl)-1-methyl-1H-pyrazol-3-yl)-2-(3,3-difluorocyclobutyl)propanamide] |
| + (“+” Moderate Activity 0.15-0.7) | Cn1nc(NC(=O)NC(C)(C)C)c(C2CCC2)c1-c1ccc(F)cc1 [Compound 245, 1-(tert-butyl)-3-(4-cyclobutyl-5-(4-fluorophenyl)-1-methyl-1H-pyrazol-3-yl)urea] |
| ++ (“++” High Activity ≥ 0.7) | Cn1nc(NC(=O)CC2(C(F)(F)F)CCC2)c(C2CCC2)c1C1(C(F)(F)F)CCC1 [Compound 88, N-(4-cyclobutyl-1-methyl-5-(1-(trifluoromethyl)cyclobutyl)-1H-pyrazol-3-yl)-2-(1-(trifluoromethyl)cyclobutyl)acetamide] |
| + (“+” Moderate Activity 0.15-0.7) | Cn1nc(NC(=O)C[C@](C)(O)C2CC(F)(F)C2)c(C2CCC2)c1-c1ccc(F)cc1 [Compound 116, (S)-N-(4-cyclobutyl-5-(4-fluorophenyl)-1-methyl-1H-pyrazol-3-yl)-3-(3,3-difluorocyclobutyl)-3-hydroxybutanamide] |
| ++ (“++” High Activity ≥ 0.7) | Cn1nc(NC(=O)[C@H]2C[C@](C)(F)C2)c(C2CCC2)c1-c1ccc(F)cc1 [Compound 202, (1r,3r)-N-(4-cyclobutyl-5-(4-fluorophenyl)-1-methyl-1H-pyrazol-3-yl)-3-fluoro-3-methylcyclobutane-1-carboxamide] |
| + (“+” Moderate Activity 0.15-0.7) | Cn1nc(NC(=O)NC2(C)COC2)c(C2CCC2)c1-c1ccc(F)cc1 [Compound 252, 1-(4-cyclobutyl-5-(4-fluorophenyl)-1-methyl-1H-pyrazol-3-yl)-3-(3-methyloxetan-3-yl)urea] |
| ++ (“++” High Activity ≥ 0.7) | C[C@H](C(=O)Nc1nn(C)c(-c2ccc(F)cc2)c1C1CCC1)C1(C(F)(F)F)CC1 [Compound 127, (S)-N-(4-cyclobutyl-5-(4-fluorophenyl)-1-methyl-1H-pyrazol-3-yl)-2-(1-(trifluoromethyl)cyclopropyl)propanamide] |
| ++ (“++” High Activity ≥ 0.7) | Cn1nc(NC(=O)C[C@@H]2CC(F)(F)C2(F)F)c(C2CCC2)c1-c1ccc(Cl)s1 [Compound 230, (R)-N-(5-(5-chlorothiophen-2-yl)-4-cyclobutyl-1-methyl-1H-pyrazol-3-yl)-2-(2,2,3,3-tetrafluorocyclobutyl)acetamide] |
| ++ (“++” High Activity ≥ 0.7) | Cn1nc(NC(=O)C[C@H]2CC(F)(F)C2(F)F)c(C2CCC2)c1-c1ccc(OC(F)(F)F)cc1 [Compound 33, (S)-N-(4-cyclobutyl-1-methyl-5-(4-(trifluoromethoxy)phenyl)-1H-pyrazol-3-yl)-2-(2,2,3,3-tetrafluorocyclobutyl)acetamide] |
| ++ (“++” High Activity ≥ 0.7) | Cn1nc(NC(=O)C2CSC2)c(C2CCC2)c1-c1cc(F)cc(F)c1 [Compound 257, N-(4-cyclobutyl-5-(3,5-difluorophenyl)-1-methyl-1H-pyrazol-3-yl)thietane-3-carboxamide] |
| ++ (“++” High Activity ≥ 0.7) | Cn1nc(NC(=O)CC2(C(F)(F)F)CC2)c(C2CCC2)c1Cc1ccccc1 [Compound 17, N-(5-benzyl-4-cyclobutyl-1-methyl-1H-pyrazol-3-yl)-2-(1-(trifluoromethyl)cyclopropyl)acetamide] |
| − (“−” No Activity < 0.15) | Cc1nnc(-c2c(C3CCC3)c(NC(=O)CC3CC(F)(F)C3)nn2C)s1 [Compound 239, N-(4-cyclobutyl-1-methyl-5-(5-methyl-1,3,4-thiadiazol-2-yl)-1H-pyrazol-3-yl)-2-(3,3-difluorocyclobutyl)acetamide] |
